Source: patent US10245264B2, “Substituted imidazo[1,2-a]pyrazines as soluble guanylate cyclase activators” (Merck Sharp & Dohme Corp., priority 2015, dated 2019)

Experiments:
[1] = test system: systolic blood pressure in spontaneously hypertensive rats; assay: Acute efficacy in spontaneously hypertensive rats (SHR), telemetry blood pressure; type: in vivo, rat
Description: Acute Efficacy in Spontaneously Hypertensive Rats (SHR)
Spontaneously hypertensive rats (SHR, male, Charles River) were implanted with DSI TA11 PA-C40 telemetry device (Data Sciences, Inc., St. Paul, Minn.) under isoflurane or ketamine/metomidine anesthesia. The telemetry unit catheter was inserted into the descending aorta via the femoral artery and the telemetry device was implanted subcutaneously in the left flank area. Animals were allowed to recover from surgery for 14 days before the start of any studies. Blood pressure, heart rate, and activity signals from conscious, freely moving rats were recorded continuously for 30 seconds every 10 minutes. On the day prior to administration of compound, a single oral dose of vehicle (10% transcutol/20% Cremophor/70% water) was administered to all animals to establish baseline control data. The blood pressure lowering efficacy of compound (PO) or vehicle was evaluated following a single oral gavage. Data were collected as hourly averages, and changes in blood pressure were calculated by subtracting control baseline data on an hourly basis. Animals were maintained on normal diet with a 12 hour light-dark cycle.
Maximum peak decreases of systolic blood pressure (SBP) in SHR at a particular P.O. dose (mpk milligrams per kilogram) for the following representative compounds are provided below in Table 6.
Category A=SBP in SHRs <20 mmHg; Category B=SBP in SHRs 20-40 mmHg;
Category C=SBP in SHRs >40 mmHg

[2] = molecular target: T1, sGC α1/β1 heterodimer stably expressed in CHO-K1 cells (CHO-K1/sGC) (Homo sapiens, UniProt Q02108+Q02153); assay: Cell-based sGC functional assay (CASA assay), cGMP generation by HTRF; conditions: for Emax: CHO-K1, maximum cGMP production of Compound A set to 100% activation, read-out: % Act. (percent activation relative to Compound A); for EC50: CHO-K1/sGC cells, 1 hr at 37° C., 4P fit, presence or absence of DETA-NO not given, read-out: IP (nM) (inflection point)
T1 construct: expressed in transfected cells
T1 sequence (Q02108 1-690): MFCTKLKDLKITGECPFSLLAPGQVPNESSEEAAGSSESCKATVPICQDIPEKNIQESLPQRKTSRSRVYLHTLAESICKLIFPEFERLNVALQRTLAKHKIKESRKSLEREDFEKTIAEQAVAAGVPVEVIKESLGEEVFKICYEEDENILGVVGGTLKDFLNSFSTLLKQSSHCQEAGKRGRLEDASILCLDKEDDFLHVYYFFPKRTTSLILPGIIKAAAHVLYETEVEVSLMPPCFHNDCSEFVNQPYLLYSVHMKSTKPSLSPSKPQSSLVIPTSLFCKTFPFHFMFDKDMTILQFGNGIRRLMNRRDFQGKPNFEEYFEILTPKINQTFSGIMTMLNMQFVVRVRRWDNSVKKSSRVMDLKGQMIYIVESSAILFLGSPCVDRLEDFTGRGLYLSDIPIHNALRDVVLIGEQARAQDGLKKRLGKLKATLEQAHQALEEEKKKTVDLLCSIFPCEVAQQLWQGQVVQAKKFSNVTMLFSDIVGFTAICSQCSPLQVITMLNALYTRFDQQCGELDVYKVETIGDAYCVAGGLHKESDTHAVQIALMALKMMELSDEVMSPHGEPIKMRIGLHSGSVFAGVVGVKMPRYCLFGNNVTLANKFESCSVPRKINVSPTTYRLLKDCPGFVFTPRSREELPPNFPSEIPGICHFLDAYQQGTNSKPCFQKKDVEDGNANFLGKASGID
T1 sequence (Q02153 1-619): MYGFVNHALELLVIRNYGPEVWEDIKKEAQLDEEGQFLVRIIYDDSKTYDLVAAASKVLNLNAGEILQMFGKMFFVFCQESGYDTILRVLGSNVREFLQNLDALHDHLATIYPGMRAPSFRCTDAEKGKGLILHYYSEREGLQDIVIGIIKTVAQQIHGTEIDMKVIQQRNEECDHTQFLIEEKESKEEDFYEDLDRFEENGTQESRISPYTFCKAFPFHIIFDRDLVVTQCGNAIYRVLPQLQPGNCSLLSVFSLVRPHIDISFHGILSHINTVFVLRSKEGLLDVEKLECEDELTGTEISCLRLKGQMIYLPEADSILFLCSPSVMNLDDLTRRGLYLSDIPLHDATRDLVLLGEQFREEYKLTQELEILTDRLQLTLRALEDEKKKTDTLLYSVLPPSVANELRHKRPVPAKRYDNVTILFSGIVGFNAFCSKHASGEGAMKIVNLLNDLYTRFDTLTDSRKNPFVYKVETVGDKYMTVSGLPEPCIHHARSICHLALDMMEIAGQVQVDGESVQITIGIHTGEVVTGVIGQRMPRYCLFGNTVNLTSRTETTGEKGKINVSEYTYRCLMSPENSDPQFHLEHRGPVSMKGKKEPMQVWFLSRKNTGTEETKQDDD
How it was run: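 CHO-K1/sGC cells (4×10^5/mL) in EBSS with 5 mM MgCl2, 10 mM HEPES, 0.05% BSA and 0.5 mM IBMX, treated 1 hr at 37° C with compounds (2.5% DMSO) with or without 1 μM DETA-NO. cGMP measured by HTRF, expressed as % of a reference heme-dependent activator's maximum; inflection point and fold induction from 4P fit.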

| Emax [2] | EC50 [2] | Compound | Maximum peak decrease of systolic blood pressure (SBP), Category ([1]; single oral dose 0.3 mpk P.O.) | Maximum peak decrease of systolic blood pressure (SBP), Category ([1]; single oral dose 1.0 mpk P.O.) | Maximum peak decrease of systolic blood pressure (SBP), Category ([1]; single oral dose 3.0 mpk P.O.) |
| --- | --- | --- | --- | --- | --- |
| 110% | 17 nM | CC1(c2ccc(F)cc2)C(=O)Nc2nc(-c3cn4ccnc4c(Oc4cccc(F)c4)n3)nc(N)c21 (stereo not drawn) [Example 1A, 4-Amino-2-[8-(3-fluorophenoxy)imidazo[1,2-a]pyrazin-6-yl]-5-(4-fluorophenyl)-5-methyl-5,7-dihydro-6H-pyrrolo[2,3-d]pyrimidin-6-one] | B (Category B=SBP in SHRs 20-40 mmHg) |  |  |
| 127% | 45 nM | CC1(c2ccccc2)C(=O)Nc2nc(-c3cn4ccnc4c(Oc4ccccc4)n3)nc(N)c21 (stereo not drawn) [Example 10B, 4-amino-5-methyl-2-(8-phenoxy-imidazo[1,2-a]pyrazin-6-yl)-5-phenyl-5,7-dihydro-6H-pyrrolo[2,3-d] pyrimidin-6-one] | B (Category B=SBP in SHRs 20-40 mmHg) |  |  |
| 168% | 171 nM | CC1(c2ccc(Cl)cc2)C(=O)Nc2nc(-c3cn4ccnc4c(Oc4cccnc4)n3)nc(N)c21 (stereo not drawn) [Example 30A, 4-amino-5-(4-chlorophenyl)-5-methyl-2-[8-(pyridin-3-yloxy)imidazo[1,2-a]pyrazin-6-yl]-5,7-dihydro-6H-pyrrolo[2,3-d] pyrimidin-6-one] |  | B (Category B=SBP in SHRs 20-40 mmHg) |  |
| 127% | 27 nM | CC(C)COc1nc(-c2nc(N)c3c(n2)NC(=O)C3(C)c2ccc(F)cc2)cn2ccnc12 (stereo not drawn) [Example 51A, 4-amino-5-(4-fluorophenyl)-5-methyl-2-[8-(2-methyl-propoxy)imidazo [1,2-a]pyrazin-6-yl]-5,7-dihydro-6H-pyrrolo[2,3-d] pyrimidin-6-one] | B (Category B=SBP in SHRs 20-40 mmHg) |  |  |

The remaining lines, values behind:

| Compound | Emax [2] | EC50 [2] | Maximum peak decrease of systolic blood pressure (SBP), Category ([1]; single oral dose 0.3 mpk P.O.) | Maximum peak decrease of systolic blood pressure (SBP), Category ([1]; single oral dose 1.0 mpk P.O.) | Maximum peak decrease of systolic blood pressure (SBP), Category ([1]; single oral dose 3.0 mpk P.O.) |
| --- | --- | --- | --- | --- | --- |
| CCCOc1nc(-c2nc(N)c3c(n2)NC(=O)C3(C)c2ccc(F)cc2)cn2ccnc12 (stereo not drawn) [Example 39A, 4-Amino-5-(4-fluorophenyl)-5-methyl-2-(8-propoxyimidazo[1,2-a]pyrazin-6-yl)-5,7-dihydro-6H-pyrrolo[2,3-d]pyrimidin-6-one] | 109% | 148 nM |  | C (Category C=SBP in SHRs >40 mmHg) |  |
| CC1(c2ccc(F)cc2)C(=O)Nc2nc(-c3cn4ccnc4c(OCC(F)(F)C(F)(F)F)n3)nc(N)c21 (stereo not drawn) [Example 2A, 4-amino-5-(4-fluorophenyl)-5-methyl-2-[8-(2,2,3,3,3-pentafluoropropoxy)imidazo[1,2-a]pyrazin-6-yl]-5,7-dihydro-6H-pyrrolo[2,3-d]pyrimidin-6-one] | 127% | 317 nM |  |  | B (Category B=SBP in SHRs 20-40 mmHg) |
| COCCNc1nc(-c2nc(N)c3c(n2)NC(=O)C3(C)c2ccc(Cl)cc2)cn2ccnc12 (stereo not drawn) [Example 40A, 4-Amino-5-(4-chlorophenyl)-2-{8-[(2-methoxyethyl)amino]imidazo[1,2-a]pyrazin-6-yl}-5-methyl-5,7-dihydro-6H-pyrrolo[2,3-d]pyrimidin-6-one] | 117% | 85 nM |  | B (Category B=SBP in SHRs 20-40 mmHg) |  |
